Results published in patent US20240024488A1, “COMPOUNDS AND USES THEREOF” (Foghorn Therapeutics Inc., priority 2020, published 2024).
pIC50: −log10 of the molar value.

Legend:
HiBit-BRM fusion protein = target: T1, HiBit-BRM fusion protein (Homo sapiens, UniProt P51531); experiment: HiBiT-BRM cell-based degradation assay (Nano-Glo HiBiT Lytic Detection, 24 h); conditions: HeLa cell line expressing HiBiT-BRM; for DC50: read-out: BRM HiBit Degradation IC50
T1 construct: expressed in transfected cells
T1 sequence (P51531 whole entry, the tested form may be a part): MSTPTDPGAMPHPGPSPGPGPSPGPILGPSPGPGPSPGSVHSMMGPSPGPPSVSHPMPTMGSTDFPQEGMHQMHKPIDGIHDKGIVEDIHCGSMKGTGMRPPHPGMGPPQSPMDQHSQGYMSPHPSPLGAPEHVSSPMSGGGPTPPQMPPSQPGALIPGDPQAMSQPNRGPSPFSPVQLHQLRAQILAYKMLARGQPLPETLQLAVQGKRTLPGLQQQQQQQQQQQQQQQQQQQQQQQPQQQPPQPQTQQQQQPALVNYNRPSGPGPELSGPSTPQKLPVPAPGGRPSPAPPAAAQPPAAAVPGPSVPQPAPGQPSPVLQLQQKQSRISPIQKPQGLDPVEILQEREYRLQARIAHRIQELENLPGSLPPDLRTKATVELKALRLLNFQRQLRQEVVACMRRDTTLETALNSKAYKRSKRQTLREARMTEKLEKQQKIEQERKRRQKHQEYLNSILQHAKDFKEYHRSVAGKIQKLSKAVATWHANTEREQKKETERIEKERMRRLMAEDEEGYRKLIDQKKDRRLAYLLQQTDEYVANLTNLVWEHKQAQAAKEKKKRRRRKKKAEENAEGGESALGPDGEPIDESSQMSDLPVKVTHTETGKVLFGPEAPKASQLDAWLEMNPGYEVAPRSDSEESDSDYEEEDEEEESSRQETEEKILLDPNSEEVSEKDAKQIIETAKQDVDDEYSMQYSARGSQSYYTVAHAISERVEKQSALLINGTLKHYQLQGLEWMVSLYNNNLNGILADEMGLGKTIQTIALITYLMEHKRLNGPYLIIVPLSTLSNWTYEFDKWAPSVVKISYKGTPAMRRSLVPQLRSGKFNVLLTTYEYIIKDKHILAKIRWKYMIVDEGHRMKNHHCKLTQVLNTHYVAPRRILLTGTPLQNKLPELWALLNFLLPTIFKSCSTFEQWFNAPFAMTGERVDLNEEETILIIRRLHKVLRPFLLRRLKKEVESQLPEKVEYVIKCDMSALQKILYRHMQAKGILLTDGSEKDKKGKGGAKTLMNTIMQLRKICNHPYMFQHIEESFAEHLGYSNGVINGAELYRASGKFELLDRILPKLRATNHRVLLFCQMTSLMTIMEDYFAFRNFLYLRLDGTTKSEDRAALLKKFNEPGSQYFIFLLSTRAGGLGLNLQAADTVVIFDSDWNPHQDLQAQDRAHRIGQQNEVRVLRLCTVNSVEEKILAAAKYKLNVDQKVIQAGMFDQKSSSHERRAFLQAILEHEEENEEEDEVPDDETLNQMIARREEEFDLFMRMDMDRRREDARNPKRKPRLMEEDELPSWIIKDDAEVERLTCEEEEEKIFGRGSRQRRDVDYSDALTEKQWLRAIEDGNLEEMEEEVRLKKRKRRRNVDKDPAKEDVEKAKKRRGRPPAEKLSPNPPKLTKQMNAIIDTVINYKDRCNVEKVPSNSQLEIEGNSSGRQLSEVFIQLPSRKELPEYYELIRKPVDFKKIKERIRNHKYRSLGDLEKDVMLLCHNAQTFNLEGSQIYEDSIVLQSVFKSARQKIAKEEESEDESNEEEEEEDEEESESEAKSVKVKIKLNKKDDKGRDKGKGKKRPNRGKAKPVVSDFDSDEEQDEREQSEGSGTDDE
Outline: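 HeLa cells stably expressing HiBiT-BRM were treated for 24 h with compounds (10-point 3-fold dilutions, 30 μM final top dose, in duplicate). HiBiT was detected by lytic LgBiT complementation luminescence. % degradation was normalized to DMSO (high control) and 2 μM of a reference BRM/BRG1 degrader (low control).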

[1] = target: T2, HiBit-BRG1 fusion protein (Homo sapiens, UniProt P51532); experiment: HiBiT-BRG1 cell-based degradation assay (Nano-Glo HiBiT Lytic Detection, 24 h); conditions: HeLa cell line expressing HiBit-BRG1 and LgBit; for Dmax: read-out: BRG1 HiBit Degradation Maximum (%)
T2 construct: expressed in transfected cells
T2 sequence (P51532 whole entry, the tested form may be a part): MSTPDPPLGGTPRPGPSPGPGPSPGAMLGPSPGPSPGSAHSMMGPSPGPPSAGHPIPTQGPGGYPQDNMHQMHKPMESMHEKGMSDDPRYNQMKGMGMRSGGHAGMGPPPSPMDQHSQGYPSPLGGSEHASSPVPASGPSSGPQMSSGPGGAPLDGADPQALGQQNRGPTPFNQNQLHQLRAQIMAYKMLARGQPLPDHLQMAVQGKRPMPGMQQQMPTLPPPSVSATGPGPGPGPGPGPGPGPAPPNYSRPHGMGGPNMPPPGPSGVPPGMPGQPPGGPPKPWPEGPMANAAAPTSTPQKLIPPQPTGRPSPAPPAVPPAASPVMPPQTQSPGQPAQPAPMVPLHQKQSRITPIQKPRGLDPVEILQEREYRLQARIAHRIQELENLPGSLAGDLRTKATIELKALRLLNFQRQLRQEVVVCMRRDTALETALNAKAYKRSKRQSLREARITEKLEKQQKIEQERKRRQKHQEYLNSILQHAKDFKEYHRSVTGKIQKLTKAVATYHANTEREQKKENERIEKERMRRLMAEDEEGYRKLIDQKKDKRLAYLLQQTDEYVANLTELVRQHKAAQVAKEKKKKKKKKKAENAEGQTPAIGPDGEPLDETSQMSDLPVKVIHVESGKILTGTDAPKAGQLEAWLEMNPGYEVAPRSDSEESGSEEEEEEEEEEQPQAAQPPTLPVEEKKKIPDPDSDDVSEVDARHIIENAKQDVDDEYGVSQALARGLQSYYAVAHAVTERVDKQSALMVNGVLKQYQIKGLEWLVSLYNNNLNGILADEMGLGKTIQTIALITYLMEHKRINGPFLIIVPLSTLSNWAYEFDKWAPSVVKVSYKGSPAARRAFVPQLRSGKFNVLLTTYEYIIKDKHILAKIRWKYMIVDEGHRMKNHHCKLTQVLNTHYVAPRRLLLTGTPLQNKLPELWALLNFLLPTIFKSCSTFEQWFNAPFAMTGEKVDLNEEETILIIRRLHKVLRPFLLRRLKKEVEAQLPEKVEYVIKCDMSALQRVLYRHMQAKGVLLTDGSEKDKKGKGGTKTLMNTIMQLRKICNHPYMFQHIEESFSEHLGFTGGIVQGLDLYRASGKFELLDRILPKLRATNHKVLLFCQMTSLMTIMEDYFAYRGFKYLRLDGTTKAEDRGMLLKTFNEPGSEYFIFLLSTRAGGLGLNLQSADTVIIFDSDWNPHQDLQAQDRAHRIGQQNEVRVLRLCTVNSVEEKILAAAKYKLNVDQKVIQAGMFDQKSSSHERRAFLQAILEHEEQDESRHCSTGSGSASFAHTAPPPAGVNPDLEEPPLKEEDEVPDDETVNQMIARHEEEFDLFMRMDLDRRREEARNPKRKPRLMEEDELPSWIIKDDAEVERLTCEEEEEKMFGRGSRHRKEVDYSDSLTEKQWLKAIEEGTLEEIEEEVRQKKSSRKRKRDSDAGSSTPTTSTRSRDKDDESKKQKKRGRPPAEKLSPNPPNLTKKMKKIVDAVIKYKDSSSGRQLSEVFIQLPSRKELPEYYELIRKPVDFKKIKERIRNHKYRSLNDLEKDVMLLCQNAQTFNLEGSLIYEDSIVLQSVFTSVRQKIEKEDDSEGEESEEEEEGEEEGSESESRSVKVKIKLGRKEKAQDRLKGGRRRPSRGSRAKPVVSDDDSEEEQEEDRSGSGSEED
Outline: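 HeLa cells stably expressing HiBiT-BRG1 plus LgBit, 5000/well, treated 24 h, then lysed with Nano-Glo HiBiT lytic reagent and luminescence read. % degradation normalised between DMSO (high control) and 2 μM reference BRM/BRG1 degrader (low control).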

[2] = read-out: BRMG1 HiBit Degradation IC50

Row | Dmax [1] [%] | DC50 (HiBit-BRM fusion protein) [nM] | DC50 [1, 2] [nM] | Structure (SMILES) | BRM HiBit Degradation Maximum (%) (HiBit-BRM fusion protein) | pIC50 (HiBit-BRM fusion protein) | BRG1 HiBit Degradation Maximum (%) [1] | pIC50 [1, 2]
1 | < 50 | – | – | Cc1ncsc1-c1ccc(CNC(=O)[C@@H]2C[C@@H](O)CN2C(=O)[C@@H](NC(=O)CCCCCCCCCCCCCCC(=O)N2CC(c3c[nH]c4nnc(-c5ccccc5O)cc34)C2)C(C)(C)C)cc1 [Compound 41, (2S,4R)-4-hydroxy-1-((S)-2-(16-(3-(3-(2-hydroxyphenyl)-7H-pyrrolo[2,3-c]pyridazin-5-yl)azetidin-1-yl)-16-oxohexadecanamido)-3,3-dimethylbutanoyl)-N-(4-(4-methylthiazol-5-yl)benzyl)pyrrolidine-2-carboxamide] | C (“C” indicates maximum degradation < 50%) | – | – | –
2 | < 50 | – | – | Cc1ncsc1-c1ccc(CNC(=O)[C@@H]2C[C@@H](O)CN2C(=O)[C@@H](NC(=O)CCCCCCCCCCCCCCCC(=O)N2CC(c3c[nH]c4nnc(-c5ccccc5O)cc34)C2)C(C)(C)C)cc1 [Compound 42, (2S,4R)-4-hydroxy-1-((S)-2-(17-(3-(3-(2-hydroxyphenyl)-7H-pyrrolo[2,3-c]pyridazin-5-yl)azetidin-1-yl)-17-oxoheptadecanamido)-3,3-dimethylbutanoyl)-N-(4-(4-methylthiazol-5-yl)benzyl)pyrrolidine-2-carboxamide] | C (“C” indicates maximum degradation < 50%) | – | – | –
3 | < 50 | – | – | Cc1ncsc1-c1ccc(CNC(=O)[C@@H]2C[C@@H](O)CN2C(=O)[C@@H](NC(=O)CCCCCCCCC(=O)N2CC(c3c[nH]c4nnc(-c5ccccc5O)cc34)C2)C(C)(C)C)cc1 [Compound 43, (2S,4R)-4-hydroxy-1-((S)-2-(10-(3-(3-(2-hydroxyphenyl)-7H-pyrrolo[2,3-c]pyridazin-5-yl)azetidin-1-yl)-10-oxodecanamido)-3,3-dimethylbutanoyl)-N-(4-(4-methylthiazol-5-yl)benzyl)pyrrolidine-2-carboxamide] | C (“C” indicates maximum degradation < 50%) | – | – | –
4 | < 50 | – | – | Cc1ncsc1-c1ccc(CNC(=O)[C@@H]2C[C@@H](O)CN2C(=O)[C@@H](NC(=O)CCCCCCCCCCCCC(=O)N2CC(c3c[nH]c4nnc(-c5ccccc5O)cc34)C2)C(C)(C)C)cc1 [Compound 44, (2S,4R)-4-hydroxy-1-((S)-2-(14-(3-(3-(2-hydroxyphenyl)-7H-pyrrolo[2,3-c]pyridazin-5-yl)azetidin-1-yl)-14-oxotetradecanamido)-3,3-dimethylbutanoyl)-N-(4-(4-methylthiazol-5-yl)benzyl)pyrrolidine-2-carboxamide] | C (“C” indicates maximum degradation < 50%) | – | – | –
5 | < 50 | – | – | Cc1ncsc1-c1ccc(CNC(=O)[C@@H]2C[C@@H](O)CN2C(=O)[C@@H](NC(=O)CCCCCCC(=O)N2CC(c3c[nH]c4nnc(-c5ccccc5O)cc34)C2)C(C)(C)C)cc1 [Compound 45, (2S,4R)-4-hydroxy-1-((S)-2-(8-(3-(3-(2-hydroxyphenyl)-7H-pyrrolo[2,3-c]pyridazin-5-yl)azetidin-1-yl)-8-oxooctanamido)-3,3-dimethylbutanoyl)-N-(4-(4-methylthiazol-5-yl)benzyl)pyrrolidine-2-carboxamide] | C (“C” indicates maximum degradation < 50%) | – | – | –
6 | < 50 | – | – | Cc1ncsc1-c1ccc(CNC(=O)[C@@H]2C[C@@H](O)CN2C(=O)[C@@H](NC(=O)CCCCCCCCCCC(=O)N2CC(c3c[nH]c4nnc(-c5ccccc5O)cc34)C2)C(C)(C)C)cc1 [Compound 46, (2S,4R)-4-hydroxy-1-((S)-2-(12-(3-(3-(2-hydroxyphenyl)-7H-pyrrolo[2,3-c]pyridazin-5-yl)azetidin-1-yl)-12-oxododecanamido)-3,3-dimethylbutanoyl)-N-(4-(4-methylthiazol-5-yl)benzyl)pyrrolidine-2-carboxamide] | C (“C” indicates maximum degradation < 50%) | – | – | –
7 | < 50 | – | – | Cc1ncsc1-c1ccc(CNC(=O)[C@@H]2C[C@@H](O)CN2C(=O)[C@@H](NC(=O)CCCCC(=O)N2CC(c3c[nH]c4nnc(-c5ccccc5O)cc34)C2)C(C)(C)C)cc1 [Compound 47, (2S,4R)-4-hydroxy-1-((S)-2-(6-(3-(3-(2-hydroxyphenyl)-7H-pyrrolo[2,3-c]pyridazin-5-yl)azetidin-1-yl)-6-oxohexanamido)-3,3-dimethylbutanoyl)-N-(4-(4-methylthiazol-5-yl)benzyl)pyrrolidine-2-carboxamide] | C (“C” indicates maximum degradation < 50%) | – | – | –
8 | – | – | – | Cc1ncsc1-c1ccc([C@H](C)NC(=O)[C@@H]2C[C@@H](O)CN2C(=O)[C@@H](c2cc(N3CCN(C(=O)[C@H]4C[C@]5(Cc6cc(-c7ccccc7O)nnc6N5)C4)CC3)no2)C(C)C)cc1 [Compound 77, (2S,4R)-4-hydroxy-1-((R)-2-(3-(4-((1S,3r)-3′-(2-hydroxyphenyl)-5′,7′-dihydrospiro[cyclobutane-1,6′-pyrrolo[2,3-c]pyridazine]-3-carbonyl)piperazin-1-yl)isoxazol-5-yl)-3-methylbutanoyl)-N-((S)-1-(4-(4-methylthiazol-5-yl)phenyl)ethyl)pyrrolidine-2-carboxamide] | A (“A” indicates maximum degradation ≥ 75%) | < 8.00 | A (“A” indicates maximum degradation ≥ 75%) | < 7.00
9 | > 75 | < 10 | > 10 | Cc1ncsc1-c1ccc([C@H](C)NC(=O)[C@@H]2C[C@@H](O)CN2C(=O)[C@@H](c2cc(N3C[C@H]4C[C@@H]3CN4C(=O)[C@@H]3CCc4[nH]c5nnc(-c6ccccc6O)cc5c4C3)no2)C(C)C)cc1 [Compound 101, (2S,4R)-4-hydroxy-1-((R)-2-(3-((1R,4R)-5-((R)-3-(2-hydroxyphenyl)-6,7,8,9-tetrahydro-5H-pyridazino[3,4-b]indole-6-carbonyl)-2,5-diazabicyclo[2.2.1]heptan-2-yl)isoxazol-5-yl)-3-methylbutanoyl)-N-((S)-1-(4-(4-methylthiazol-5-yl)phenyl)ethyl)pyrrolidine-2-carboxamide] | A (“A” indicates maximum degradation ≥ 75%) | – | – | –
10 | < 50 | > 10 | – | Cc1ncsc1-c1ccc([C@H](C)NC(=O)[C@@H]2C[C@@H](O)CN2C(=O)[C@@H](c2cc(OCC(=O)N(C)[C@H]3CCc4[nH]c5nnc(-c6ccccc6O)cc5c4C3)no2)C(C)C)cc1 [Compound 106, (2S,4R)-4-hydroxy-1-((R)-2-(3-(2-(((S)-3-(2-hydroxyphenyl)-6,7,8,9-tetrahydro-5H-pyridazino[3,4-b]indol-6-yl)(methyl)amino)-2-oxoethoxy)isoxazol-5-yl)-3-methylbutanoyl)-N-((S)-1-(4-(4-methylthiazol-5-yl)phenyl)ethyl)pyrrolidine-2-carboxamide] | A (“A” indicates maximum degradation ≥ 75%) | – | – | –
11 | > 75 | > 10 | > 10 | Cc1ncsc1-c1ccc([C@H](C)NC(=O)[C@@H]2C[C@@H](O)CN2C(=O)[C@@H](c2cc(N3CCC(CN(C)[C@H]4CCc5[nH]c6nnc(-c7ccccc7O)cc6c5C4)CC3)no2)C(C)C)cc1 [Compound 107, (2S,4R)-4-hydroxy-1-((R)-2-(3-(4-((((S)-3-(2-hydroxyphenyl)-6,7,8,9-tetrahydro-5H-pyridazino[3,4-b]indol-6-yl)(methyl)amino)methyl)piperidin-1-yl)isoxazol-5-yl)-3-methylbutanoyl)-N-((S)-1-(4-(4-methylthiazol-5-yl)phenyl)ethyl)pyrrolidine-2-carboxamide] | A (“A” indicates maximum degradation ≥ 75%) | – | – | –
12 | – | – | – | Cc1ncsc1-c1ccc([C@H](C)NC(=O)[C@@H]2C[C@@H](O)CN2C(=O)[C@@H](c2cc(OCCN3C[C@H]4C[C@@H](c5c(C)[nH]c6nnc(-c7ccccc7O)cc56)C[C@H]4C3)no2)C(C)C)cc1 [Compound 109, (2S,4R)-4-hydroxy-1-((R)-2-(3-(2-((3aR,5R,6aS)-5-(3-(2-hydroxyphenyl)-6-methyl-7H-pyrrolo [2,3-c]pyridazin-5-yl)hexahydrocyclopenta[c]pyrrol-2(1H)-yl)ethoxy)isoxazol-5-yl)-3-methylbutanoyl)-N-((S)-1-(4-(4-methylthiazol-5-yl)phenyl)ethyl)pyrrolidine-2-carboxamide] | A (“A” indicates maximum degradation ≥ 75%) | < 8.00 | C (“C” indicates maximum degradation < 50%) | –
13 | < 50 | – | – | Cc1ncsc1-c1ccc([C@H](C)NC(=O)[C@@H]2C[C@@H](O)CN2C(=O)[C@@H](c2cc(OCCN3CC(c4cn(C(F)F)c5nnc(-c6ccccc6O)cc45)C3)no2)C(C)C)cc1 [Compound 116, (2S,4R)-1-((R)-2-(3-(2-(3-(7-(difluoromethyl)-3-(2-hydroxyphenyl)-7H-pyrrolo[2,3-c]pyridazin-5-yl)azetidin-1-yl)ethoxy)isoxazol-5-yl)-3-methylbutanoyl)-4-hydroxy-N-((S)-1-(4-(4-methylthiazol-5-yl)phenyl)ethyl)pyrrolidine-2-carboxamide] | C (“C” indicates maximum degradation < 50%) | – | – | –
14 | > 50 | – | – | Cc1ncsc1-c1ccc([C@H](C)NC(=O)[C@@H]2C[C@@H](O)CN2C(=O)[C@@H](c2cc(OCCN3CC(C4(C)Cc5cc(-c6ccccc6O)nnc5N4)C3)no2)C(C)C)cc1 (stereo partly drawn) [Compound 122, (2S,4R)-4-hydroxy-1-((2R)-2-(3-(2-(3-(3-(2-hydroxyphenyl)-6-methyl-6,7-dihydro-5H-pyrrolo[2,3-c]pyridazin-6-yl)azetidin-1-yl)ethoxy)isoxazol-5-yl)-3-methylbutanoyl)-N-((S)-1-(4-(4-methylthiazol-5-yl)phenyl)ethyl)pyrrolidine-2-carboxamide] | C (“C” indicates maximum degradation < 50%) | – | – | –
